Reference: patent publication US20070149562A1, “OXOPIPERIDINE DERIVATIVES, PREPARATION AND THERAPEUTIC USE THEREOF” (SANOFI-AVENTIS, priority 2004, published 2007)
pEC50, pIC50: −log10 of the molar value. Counter-ions that a name gives are not always drawn.

Key:
[1] = target: T1, human MC4 receptor (Homo sapiens, UniProt P32245); experiment: Affinity assay: displacement of [125I]-[Nle4-D-Phe7]-α-MSH binding to cell membranes (SPA); conditions: membranes of CHO-K1 cells expressing human MC4 receptor; radioligand 100 pM; read-out: IC50 with respect to the MC4 receptor
T1 construct: host or cells: CHO-K1
T1 sequence (P32245 whole entry): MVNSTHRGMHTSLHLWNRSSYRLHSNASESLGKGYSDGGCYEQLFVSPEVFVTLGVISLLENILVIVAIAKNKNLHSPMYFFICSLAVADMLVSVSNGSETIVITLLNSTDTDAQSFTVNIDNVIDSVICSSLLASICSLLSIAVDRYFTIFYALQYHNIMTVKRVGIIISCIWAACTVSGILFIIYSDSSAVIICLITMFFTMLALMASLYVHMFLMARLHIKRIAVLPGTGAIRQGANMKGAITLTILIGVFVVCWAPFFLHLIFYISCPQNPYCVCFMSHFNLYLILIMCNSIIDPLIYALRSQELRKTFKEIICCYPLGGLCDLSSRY
Experimental: This affinity assay is carried out by measuring the binding of [^125I]-[Nle^4-D-Phe^7]-[…]-MSH to cell membranes. The displacement of this radioligand is used to identify inhibitors of the specific binding to recombinant melanocortin receptors.
For this assay, membranes prepared from CHO-K1 cells expressing the human MC4 receptor at high density (Euroscreen) or membranes, that were purchased (Perkin Elmer Life Sciences, Receptor Biology), of HEK-293 cells expressing hMC3 receptors were used. CHO-K1 cells transfected with the hMC4 receptor gene (Euroscreen) are seeded into DMEM/Nutrient Mix F12 culture medium containing 10% foetal calf serum (Biowhittaker), 1% sodium pyruvate, 1% L-glutamine, 1% non-essential amino acids, 0.4 mg/ml geneticin (G418) and 0.5% PenStrep, these products being provided by Gibco/BR1, except the calf serum. At 80% confluency, the cells are scraped off and the cell pellets are frozen at −80° C.
A tube of cells (approximately 70×10^6 cells) is thawed on ice and resuspended in 10 ml of binding buffer [25 mM HEPES, pH 7.0, 1 mM MgCl2, 1.5 mM CaCl2, 100 mM NaCl, 1 mM 1,10-phenanthroline and 1 tablet of Complete™ (protease inhibitor from Roche) in 50 ml of buffer]using a polytron for 20 seconds. The suspension is centrifuged for 20 min at 19 500 rpm at 4° C. The supernatant is discarded and the pellet is resuspended in 5 ml of binding buffer. The amount of proteins present in the sample is assayed using a Bradford test, and the concentration is adjusted to 3 ug/25 ul by dilution in binding buffer.
[^125I]-[Nle^4, D-Phe^7]-[…]-MSH is diluted in binding buffer+0.2% BSA. SPA beads (wheatgerm agglutinin polyvinyltoluene, Amersham Pharmacia Biotech) are hydrated in the binding buffer+0.2% BSA and are then mixed with the cell homogenate so as to obtain 3 μg of cell proteins and 250 ug of beads in 50 ul. […] The nonspecific binding is defined by NDP-DMSH at 10^-7 M. The total binding is measured by the number of counts per minute in the presence of the radioligand alone. […]

[2] = target: T2, human MC3 receptor (Homo sapiens, UniProt P41968); experiment: Functional assay of agonist activity: cAMP formation; assay type: cell-based; conditions: CHO(dhfr-) cells expressing human MC3 receptor, 1 hour incubation, read-out: EC50 with respect to the MC3 receptor
T2 construct: expressed in transfected cells; host or cells: CHO(dhfr-)
T2 sequence (P41968 whole entry): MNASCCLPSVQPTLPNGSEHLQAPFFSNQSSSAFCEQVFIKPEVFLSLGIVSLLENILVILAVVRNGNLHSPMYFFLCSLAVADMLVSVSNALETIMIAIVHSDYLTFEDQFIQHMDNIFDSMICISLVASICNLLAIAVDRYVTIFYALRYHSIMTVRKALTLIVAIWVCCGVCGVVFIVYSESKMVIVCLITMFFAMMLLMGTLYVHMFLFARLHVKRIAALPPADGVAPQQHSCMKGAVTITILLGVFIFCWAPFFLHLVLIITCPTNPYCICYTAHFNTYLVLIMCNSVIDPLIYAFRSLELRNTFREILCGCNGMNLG
Experimental: (§1) A functional assay is used to differentiate between the agonist activity and the antagonist activity. For this, the formation of cyclic adenosine monophosphate (cAMP) generated by activation of the MC3 receptor or of the MC4 receptor is assayed.
CHO(dhfr-) cells expressing the human MC3 receptor are seeded into MEM Eagle culture medium (Sigma) containing 10% of dialysed calf serum, 1% L-glutamine, 1% sodium pyruvate, 20 mg/500 ml L-proline, 0.3 mg/ml Geneticin and 0.5% PenStrep, these products being provided by Gibco/BR1, except for the dialysed calf serum (Cambrex) and the L-proline (Sigma).
(§2) The compounds to be tested (diluted in 10% DMSO), in an amount of 10 ul at a concentration of 10 times the final concentration, are added to the plates of cells (final volume=100 ul/well). After incubation for 1 hour (37° C., 5% CO2), the amount of cAMP is assayed using Tropix kits (Appelera) according to the supplier's documentation. The intrinsic activity of the compounds is calculated by comparing the stimulation of cAMP by these compounds to the stimulation induced by 30 nM of NDP MSH (maximum of 100%). The EC50 value for the compounds corresponds to the concentration which produces 50% of the maximum stimulation obtained with this compound.

[3] = target: T1, human MC4 receptor; experiment: as above; assay type: cell-based; conditions: CHO-K1 cells expressing human MC4 receptor, 1 hour incubation, read-out: EC50 with respect to the MC4 receptor
Experimental: as §1
CHO-K1 cells, expressing the human MC4 receptor at a moderate density (Euroscreen), are seeded into DMEM/Nutrient Mix F12 culture medium (Gibco/BR1) containing 10% of foetal calf serum, 0.5% sodium pyruvate, 1% L-glutamine, 1% non-essential amino acids, 200 mg/l hygromycin B and 0.5% PenStrep, these products being provided by Gibco/BR1, except the calf serum (Biowhittaker) and hygromycin B (Sigma).
as §2

| melting point | pIC50 [1] | pEC50 [2] | pEC50 [3] | Structure (SMILES) |
| --- | --- | --- | --- | --- |
| 255 °C |  |  |  | O=C([C@@H](Cc1ccc(Cl)cc1)NC1CCNCC1)N1CCC(Cn2cncn2)(C2CCCCC2)CC1 (as salt: HCl) [Compound 1, N-{(1R)-1-(4-chlorobenzyl)-2-[4-cyclohexyl-4-(1H-1,2,4-triazol-1-ylmethyl)piperidin-1-yl]-2-oxoethyl}piperidin-4-amine] |
| 159 °C |  |  |  | N[C@H]1CC[C@@H](N[C@H](Cc2ccc(Cl)cc2)C(=O)N2CCC(Cn3cncn3)(C3CCCCC3)CC2)CC1 (as salt: HCl) [Compound 12, cis-N-{(1R)-1-(4-chlorobenzyl)-2-[4-cyclohexyl-4-(1H-1,2,4-triazol-1-ylmethyl)piperidin-1-yl]-2-oxoethyl}cyclohexane-1,4-diamine] |
| > 200 °C |  |  |  | CS(=O)(=O)N1CCC(N[C@H](Cc2ccc(Cl)cc2)C(=O)N2CCC(Cn3cncn3)(C3CCCCC3)CC2)CC1 (as salt: HCl) [Compound 54, N-{(1R)-1-(4-chlorobenzyl)-2-[4-cyclo-hexyl-4-(1H-1,2,4-triazol-1-ylmethyl)piperidin-1-yl]-2-oxoethyl}-1-(methylsulphonyl)piperidin-4-amine] |
| 128 °C |  |  |  | NCC(=O)N[C@H]1CC[C@@H](N[C@H](Cc2ccc(Cl)cc2)C(=O)N2CCC(Cn3cncn3)(C3CCCCC3)CC2)CC1 (as salt: HCl) [Compound 116, N-[cis-4-({(1R)-1-(4-chlorobenzyl)-2-[4-cyclohexyl-4-(1H-1,2,4-triazol-1-ylmethyl)piperidin-1-yl]-2-oxoethyl}amino)cyclohexyl]glycinamide] |
|  | 6.60 | 6.70 | 7.30 | O=C([C@@H](Cc1ccc(Cl)cc1)NC1CCNCC1)N1CCC(Cn2cncn2)(C2CCCCC2)CC1 [Compound 1, N-{(1R)-1-(4-chlorobenzyl)-2-[4-cyclohexyl-4-(1H-1,2,4-triazol-1-ylmethyl)piperidin-1-yl]-2-oxoethyl}piperidin-4-amine] |
| 75 °C | 6.24 | 6.96 | 7.22 | O=C([C@@H](Cc1ccc(Cl)cc1)NC1CCOCC1)N1CCC(Cn2cncn2)(C2CCCCC2)CC1 [Compound 2, N-{(1R)-1-(4-chlorobenzyl)-2-[4-cyclohexyl-4-(1H-1,2,4-triazol-1-ylmethyl)piperidin-1-yl]-2-oxoethyl}tetrahydro-2H-pyran-4-amine] |
|  | 6.70 | 7.00 | 7.70 | N[C@H]1CC[C@@H](N[C@H](Cc2ccc(Cl)cc2)C(=O)N2CCC(Cn3cncn3)(C3CCCCC3)CC2)CC1 [Compound 12, cis-N-{(1R)-1-(4-chlorobenzyl)-2-[4-cyclohexyl-4-(1H-1,2,4-triazol-1-ylmethyl)piperidin-1-yl]-2-oxoethyl}cyclohexane-1,4-diamine] |
